Source: patent US20250032476A1, “ALPHA-2A ADRENERGIC RECEPTOR MODULATORS AND USES THEREOF” (The Regents of the University of California, priority 2021, published 2025)
Read-outs that look alike come from different tables or passages of the source.

Assays:
[1] = target: T1, ALPHA-2A ADRENERGIC RECEPTOR (Homo sapiens (Human), UniProt P08913); test: Gi recruitment (G protein); assay type: cell-based; details: Gi recruitment; for Emax: read-out: G protein Emax (%); for functional classification (agonist / weak agonist): Table 6, result in words
T1 sequence (P08913 whole entry): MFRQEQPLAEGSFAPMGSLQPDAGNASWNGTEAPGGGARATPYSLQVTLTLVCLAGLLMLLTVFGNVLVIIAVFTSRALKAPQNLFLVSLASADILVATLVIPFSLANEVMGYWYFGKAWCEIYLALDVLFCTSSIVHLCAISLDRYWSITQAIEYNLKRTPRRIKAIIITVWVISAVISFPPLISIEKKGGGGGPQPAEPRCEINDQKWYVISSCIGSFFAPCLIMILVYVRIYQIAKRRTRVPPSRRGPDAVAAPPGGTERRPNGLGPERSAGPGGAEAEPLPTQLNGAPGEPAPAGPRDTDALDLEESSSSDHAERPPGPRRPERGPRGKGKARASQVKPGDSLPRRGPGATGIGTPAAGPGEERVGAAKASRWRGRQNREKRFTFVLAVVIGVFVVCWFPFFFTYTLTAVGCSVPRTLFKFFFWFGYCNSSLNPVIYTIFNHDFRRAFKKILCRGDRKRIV

[2] = target: T1, ALPHA-2A ADRENERGIC RECEPTOR; test: Arrestin recruitment; assay type: cell-based; details: for Emax: Tables 7-9
[3] = Pharmacokinetics in mice (plasma, brain, CSF); assay type: in vivo; details: for AUC / Cmax: mouse, plasma
Experimental: Pharmacokinetics. Pharmacokinetic experiments were performed by Bienta (Enamine Biology Services) in accordance with Enamine pharmacokinetic study protocols and Institutional Animal Care and Use Guidelines (protocol number 1-2/2020). […] In each compound study, nine time points (5, 15, 30, 60, 120, 240, 360, 480 and 1440 min) were collected, each of the time point treatment group included 3 animals. There was also a control group of one animal. In the ‘9087, ‘7075, ‘4622 studies, male C57BL/6N mice were used, for PS75 CD-1 mice, and for ‘2998 male Balb/cAnN mice. For all compound studies the animals were randomly assigned to the treatment groups before the pharmacokinetic study; all animals were fasted for 4 h before dosing. For injections, ‘9087 was dissolved in Captisol—water (40%:60%, w/v), ‘4622 was dissolved in a 20% Kolliphor HS—physiological saline solution, and ‘7075, PS75, and ‘2998 were dissolved in a 20% 2-HPBCD—aqueous solution. The batches of working formulations were prepared 10 minutes prior to the in vivo study.
(§1) Mice were injected i.p. with 2,2,2-tribromoethanol at 150 mg/kg prior to drawing CSF and blood. CSF was collected under a stereomicroscope from cisterna magna using 1 mL syringes. Blood collection was performed from the orbital sinus in microtainers containing K3EDTA. Animals were sacrificed by cervical dislocation after the blood samples collection. Blood samples were centrifuged 10 min at 3000 rpm. Brain samples (right lobe) were weighed and transferred into 1.5 ml tubes. All samples were immediately processed, flash-frozen and stored at −70° C. until subsequent analysis.
Plasma samples (40 μL) were mixed with 200 μL of internal standard (IS) solution. After mixing by pipetting and centrifuging for 4 min at 6000 rpm, 4 μL of each supernatant was injected into the LC-MS/MS system. Solutions of internal standards were used to quantify compounds in the plasma samples. […] After this, the samples were centrifuged for 4 min at 14,000 rpm, and supernatant was injected into LC-MS/MS system. CSF samples (2 μL) were mixed with 40 μL of an internal stock solution. After mixing by pipetting and centrifuging for 4 min at 6,000 rpm, 5 μL of each supernatant was injected into LC-MS/MS system.
(§2) Analyses of plasma, brain and CSF samples were conducted at Enamine/Bienta. The concentrations of compounds in plasma and brain samples were determined using high performance liquid chromatography/tandem mass spectrometry (HPLC-MS/MS). Data acquisition and system control was performed using Analyst 1.5.2 software (AB Sciex, Canada). […] Pharmacokinetic data analysis was performed using noncompartmental, bolus injection or extravascular input analysis models in WinNonlin 5.2 (PharSight).
as §1, with “mL” for “ml”
as §2
Additional pharmacokinetic experiments were performed by Sai Life Sciences (Hyderabad, India) in accordance with the Sai Study Protocol SAIDMPK/PK-22-04-0340. […] Testing was done in C57BL/6 mice.

[4] = Tables 7-9, read-out: G protein EC50
[5] = C57BL/6N ('9087), C57BL/6 (PS75), iv, I.V. 10 mg/kg
[6] = C57BL/6N ('9087), C57BL/6 (PS75), po, P.O. 30 mg/kg

Cc1coc2ccc(C3=CCCNC3)cc12 [Compound 9677, 5-(3-Methylbenzofuran-5-yl)-1,2,3,6-tetrahydropyridine]
EC50 [1, 4]: 170 nM

Nc1ccnc(Oc2ccc(F)cc2)c1 [Compound 4783, 2-(4-Fluorophenoxy)pyridin-4-amine]
EC50 [1, 4]: 580 nM

Cc1ccc(Nc2ccccn2)cc1C [Compound 4472, N-(3,4-Dimethylphenyl)pyridin-2-amine]
EC50 [1, 4]: 3300 nM

C1=C(c2cccc3ccccc23)CNCC1 [Compound 3461, 5-(Naphthalen-1-yl)-1,2,3,6-tetrahydropyridine]
EC50 [1, 4]: 450 nM

Nc1ccc(-c2ccc3[nH]ncc3c2Cl)cn1 [TP85, 5-(4-Chloro-1H-indazol-5-yl)pyridin-2-amine]
Arrestin effect at 100 μM [2]: 34% at 100 μM
EC50 [1, 4]: 220 nM
Emax ([1]; Tables 7-9): 81%

C1=C(c2cccc3c2CCC3)CNCC1 [Compound 3827, 5-(2,3-dihydro-1H-inden-4-yl)-1,2,3,6-tetrahydropyridine]
EC50 [1, 4]: 390 nM

N#Cc1cc2[nH]ncc2cc1-c1ccc(N)nc1 [BSC2998-E02]
Arrestin effect at 100 μM [2]: 25% at 100 μM
EC50 [1, 4]: 2900 nM
Emax ([1]; Tables 7-9): 14%

Cc1c(-c2cccnc2N)ccc2[nH]ncc12 [Compound 5193, 3-(4-Methyl-1H-indazol-5-yl)pyridin-2-amine]
EC50 [1, 4]: 3100 nM

3-Methyl-N^1-(pyridin-2-yl)benzene-1,4-diamine [Compound 5822]
EC50 [1, 4]: 1100 nM

COc1ccc2c(Nc3ccncc3)cccc2c1 [PS73]
EC50 ([1]; Table 6, read-out: EC50): 50 nM

C=C(c1ccccc1)c1c(F)ccnc1N [Compound 9689]
EC50 [1, 4]: 7300 nM

O=C1CCc2ccc(C3=CCCNC3)cc21 [TP81]
Emax [2]: < 10%
EC50 [1, 4]: 3000 nM
Emax ([1]; Tables 7-9): 79%

Nc1ncccc1-c1ccc2[nH]ncc2c1 [Compound 9241, 3-(1H-Indazol-5-yl)pyridin-2-amine]
EC50 [1, 4]: 2100 nM

O=C1CCc2cc(C3=CCCNC3)ccc21 [TP90]
Emax [2]: < 5%
Emax ([1]; Tables 7-9): < 5%

Nc1ccc(-c2cc3cn[nH]c3cc2[N+](=O)[O-])cn1 [TP78, 5-(6-Nitro-1H-indazol-5-yl)pyridin-2-amine]
Emax [2]: < 10%
EC50 [1, 4]: 910 nM
Emax ([1]; Tables 7-9): 51%

Nc1ccc(-c2cc([N+](=O)[O-])c3[nH]ncc3c2)cn1 [TP70, 5-(7-Nitro-1H-indazol-5-yl)pyridin-2-amine]
Emax [2]: < 10%
EC50 [1, 4]: 3200 nM
Emax ([1]; Tables 7-9): -27%

C=C(c1ccccc1)c1cccnc1N [Compound 9280]
EC50 [1, 4]: 2600 nM

Fc1cccc2c(Nc3ccncc3)cncc12 [PS82]
functional classification (agonist / weak agonist) [1]: agonist
EC50 ([1]; Table 6, read-out: EC50): 230 nM

Nc1ncccc1-c1ccc2scnc2c1 [Compound 8723, 3-(Benzo[d]thiazol-5-yl)pyridin-2-amine]
EC50 [1, 4]: 1300 nM

c1ccc2c(Nc3ccncc3)cncc2c1 [Compound 9087, N-(pyridin-4-yl)isoquinolin-4-amine]
AUC [3, 5]: 1750 ng·h/mL
Cmax [3, 5]: 2020 ng/mL
AUC [3, 6]: 8430 ng·h/mL
Cmax [3, 6]: 2720 ng/mL
AUC Brain ([3]; I.P. 10 mg/kg): 439000 ng·min/mL
AUC CSF ([3]; I.P. 10 mg/kg): 154000 ng·min/mL
Cmax Brain ([3]; I.P. 10 mg/kg): 5960 ng/mL
Cmax CSF ([3]; I.P. 10 mg/kg): 447 ng/mL
Cmax Brain ([3]; I.V. 10 mg/kg): 6590 ng/mL
Cmax Brain ([3]; P.O. 30 mg/kg): 14000 ng/mL
AUC ([3]; ip, I.P. 10 mg/kg): 1830 ng·h/mL
Cmax ([3]; ip, I.P. 10 mg/kg): 1440 ng/mL

C1=C(c2ccc3c(c2)CCO3)CNCC1 [Compound 9700, 5-(2,3-Dihydrobenzofuran-5-yl)-1,2,3,6-tetrahydropyridine]
EC50 [1, 4]: 800 nM

COc1cccc2c(Nc3ccncc3)cncc12 [PS79]
functional classification (agonist / weak agonist) [1]: agonist
EC50 ([1]; Table 6, read-out: EC50): 100 nM
